Measured values: patent publication US11767313B2, “Compounds as nuclear transport modulators and uses thereof” (XWPHARMA LTD., priority 2018, dated 2023)
Where two headings read alike, the source gives them in different places.

Legend:
[1] = Pharmacokinetic profile in plasma; assay type: in vivo; conditions: P.O., mice
Description: Blood was collected from mice (n=3, or 5) to contribute to the total of 10 time points (pre-dose, 5 min, 15 min, 30 min, 1 hour, 2 hours, 4 hours, 8 hours, 12 hours and 24 hours). At the designated time points, animals were anaesthetized under isoflurane, and approximately 110 μL of blood per time point was collected via retro-orbital puncture into pre-cooled K2EDTA tubes. Blood samples were put on wet ice and centrifuged (2000 g, 5 min at 4° C.) to obtain plasma within 30 minutes of sample collection. All samples were stored frozen at approximately −80° C. until analysis. Prior to analysis, samples were mixed with internal standard in acetonitrile, vortexed, centrifuged, and supernatant was injected for analysis. Concentration of compounds in plasma was determined using LC-MS-MS instrumentation (API 4000, Triple Quadrupole LC/MS/MS Mass Spectrometer). AUC values were calculated using Phoenix Win Nonlin 6.3 software package, PO-Noncompartmental model 200 (extravascular input).

H2009 = assay: CellTiter-Glo cell proliferation assay, H2009; assay type: cell-based; conditions: Homo sapiens, NCI-H2009, 72 hours, Table 1, read-out: Growth inhibition (IC50)
Description: (§1) CellTiter-Glo® Luminescent Cell Viability assay (with Promega CellTiter 96® Luminescent CellTiter-Glo® kit) was used to study the proliferation inhibition by test compounds. Compounds were resuspended in DMSO to make a 25 mM stock suspension. Cells of cancer cell lines or normal tissues were seeded in 96-well plates at 1,500 to 5,000 cells/well overnight. Compounds were 2- or 3-fold diluted serially to obtain 10 concentrations. Then, the drugs were added to the cell wells by Bravo (Agilent) and incubated for 72 hours. The cells were lysed by adding CellTiter-Glo® Reagent (per manufacturer's instructions) and subsequently, the luminescence was read using EnVision® (PerkinElmer).
(§2) The percent of growth was calculated as follows. DMSO-treated cells were employed as vehicle control (High control, HC) and culture medium alone was employed as background (Low control, EC). % growth=100×(Lum sample−Lum EC)/(Lum HC−Lum EC). The ICso was calculated by concentration-response curve fitting using Graphpad Prism.
(§3) Hematological cancer cell lines tested included OCI-AML3, MV-4-11, KG-1, Kasumi-1, K562, THP-1; solid cancer cell lines tested included U87MG, U251, T98G, LN229, A172, H460, H2009, A549; normal cell lines tested included HCN2 and 3T3-L1. […] However, they were not toxic to in vitro cultured normal cells.

3T3 = assay: Cytotoxicity, cell proliferation assay, 3T3; assay type: cell-based; conditions: Mus musculus, NIH3T3; Table 9
Description: as §1, §2
The cytotoxicity of test compounds was also determined in glioblastoma (U87MG)), brain (HCN2) and 3T3 cell lines was determined using the cell proliferation assay as described in Example 19.

A-172 = assay: CellTiter-Glo cell viability assay, A-172; assay type: cell-based; conditions: Homo sapiens, Table 6
Description: as §1, §2
The inhibition activity of test compounds was determined in A-172, U87MG and 3T3-L1 cell lines.
A CellTiter-Glo® luminescent cell viability assay was performed s described in Example 1.

Ratio of brain to plasma = assay type: in vivo; conditions: rats, 10 mg/kg PO
Description: Following collection, brain tissue was rinsed with cold saline, dried on filter paper, weighed and snap-frozen by placing on dry ice. All samples were stored frozen at approximately −80° C. until analysis. At the time of analysis, brain tissue was homogenized (homogenizing solution PBS, pH 7.4), mixed with internal standard in acetonitrile, vortexed, centrifuged, and supernatant was injected for analysis. Concentration of compounds in plasma was determined using LC-MS-MS instrumentation (API 4000, Triple Quadrupole LC/MS/MS Mass Spectrometer). Plasma samples were treated with the identical method (except homogenization step) and the concentration of compound in each matrix was calculated based on generated standard curves.

3T3-L1 = assay: CellTiter-Glo cell proliferation assay, 3T3-L1 (normal); assay type: cell-based; conditions: Mus musculus
Description: as §1, §2, §3

Ki67 = assay: PD effects by IHC in U87MG-luc orthotopic model, Ki67; assay type: in vivo, mice; conditions: orally three times a week for 2 weeks; vs vehicle control
Description: Based on the bioluminescent signal of tumor, mice were randomly assigned to respective groups using a computer-generated randomization procedure, which included vehicle and compound III-treated groups, respectively, with 5 animals per group. Compound III (20 mg/kg) was given orally 3 times a week (on Day 1, 3, 5) for 2 weeks. Animals for IHC study were euthanized at 6 hours after the last dose and perfused with normal saline followed by fixation with 4% paraformaldehyde. Entire brains containing tumors were collected and kept in fixative for 24 hours before proceeding for paraffin block.

XPO1 = XPO1 (Homo sapiens, UniProt O14980); assay: Compound washout assay in REV-GFP cells; conditions: for XPO1 inhibition post washout: 400 nM (EC90); for effect on nuclear retention of REV: at EC50 (120 nM)
Description: In order to evaluate the duration of XPO1 inhibition by test compounds on XPO1 protein after washout, washout assay was performed using REV-GFP cells. The test compounds and positive control were added to the cell well, and the plate was incubated the at 37° C. and 5% CO2 for 1 h. The drug-containing media were removed, the cells were washed, and the fresh media were added. The cells were imagined at the specified time points 0, 4, 24, 48, 72, and 96 hours to evaluate the inhibition of REV nuclear export. […] 4A. […] 4B. […] 4C.

in vivo = conditions: female, mouse

Chain of XPO1 (O14980 whole entry): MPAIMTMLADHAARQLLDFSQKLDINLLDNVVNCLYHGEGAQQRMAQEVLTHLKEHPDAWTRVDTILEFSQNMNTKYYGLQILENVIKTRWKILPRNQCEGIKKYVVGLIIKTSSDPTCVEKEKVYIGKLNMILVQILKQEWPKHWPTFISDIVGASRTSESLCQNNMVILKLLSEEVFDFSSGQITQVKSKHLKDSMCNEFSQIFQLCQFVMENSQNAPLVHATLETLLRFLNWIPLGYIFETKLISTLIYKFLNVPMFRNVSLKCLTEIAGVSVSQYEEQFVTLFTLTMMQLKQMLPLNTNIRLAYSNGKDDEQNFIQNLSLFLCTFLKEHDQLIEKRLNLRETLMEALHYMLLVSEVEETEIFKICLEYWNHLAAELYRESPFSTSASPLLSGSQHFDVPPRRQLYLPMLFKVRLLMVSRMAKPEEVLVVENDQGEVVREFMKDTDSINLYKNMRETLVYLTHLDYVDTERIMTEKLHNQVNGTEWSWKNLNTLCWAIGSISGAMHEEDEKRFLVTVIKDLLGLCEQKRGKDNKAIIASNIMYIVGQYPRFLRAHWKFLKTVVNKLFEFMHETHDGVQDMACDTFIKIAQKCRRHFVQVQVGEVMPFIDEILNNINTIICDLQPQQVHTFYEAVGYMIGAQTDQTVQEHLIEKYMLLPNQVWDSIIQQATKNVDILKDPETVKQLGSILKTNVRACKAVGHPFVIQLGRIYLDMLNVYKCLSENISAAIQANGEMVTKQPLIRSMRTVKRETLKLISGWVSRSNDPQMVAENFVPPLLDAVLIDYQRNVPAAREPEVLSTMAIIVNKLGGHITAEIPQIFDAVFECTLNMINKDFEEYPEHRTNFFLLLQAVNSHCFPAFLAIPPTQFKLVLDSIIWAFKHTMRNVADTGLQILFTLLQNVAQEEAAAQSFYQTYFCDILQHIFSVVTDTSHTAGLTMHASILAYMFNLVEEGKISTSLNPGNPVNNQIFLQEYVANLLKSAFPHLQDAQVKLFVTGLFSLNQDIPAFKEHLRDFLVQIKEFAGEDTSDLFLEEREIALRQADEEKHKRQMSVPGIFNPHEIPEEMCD

## O=C(/C=C\n1cnc(-c2cc(C(F)(F)F)cc(S(F)(F)(F)(F)F)c2)n1)NNc1cnccn1 [Compound I, (Z)-3-(3-(3-(pentafluorosulfanyl)-5-(trifluoromethyl)phenyl)-1H-1,2,4-triazol-1-yl)-N′-(pyrazin-2-yl)acrylohydrazide]
[1]
  AUG0-inf: 10430 ng·h/mL
[1]; mouse, po
  Cmax: 2550 ng/mL
  Tmax: 0.75 h
  half-life: 4.72 h
[1]; mouse, po, read-out: MRT0-inf
  MRT inf: 5.55 h
[1]; mouse, po, read-out: MRT0-last
  MRT last: 4.51 h
H2009
  IC50: 0.521 µM
3T3
  IC50: > 50 µM
A-172
  IC50: 0.407 µM
Ratio of brain to plasma; rat, brain/plasma, 0.25 h
  Kp at 0.25 h: 0.386
Ratio of brain to plasma; rat, brain/plasma, 1 h
  Kp at 1 h: 0.707
Ratio of brain to plasma; rat, brain/plasma, 8 h
  Kp at 8 h: 0.782
Ratio of brain to plasma; 0.25 h
  brain concentration (second number of pair): 319 ng/g
  plasma concentration (first number of pair): 810 ng/g
Ratio of brain to plasma; 1 h
  brain concentration (second number of pair): 1301 ng/g
  plasma concentration (first number of pair): 1887 ng/g
Ratio of brain to plasma; 8 h
  brain concentration (second number of pair): 194 ng/g
  plasma concentration (first number of pair): 252 ng/g
3T3-L1; 3T3-L1, Table 6, read-out: 3T3-L1 IC50
  IC50: > 50 µM
3T3-L1; 3T3-L1 normal cell line, 72 hours, Table 1, read-out: Growth inhibition (IC50)
  IC50: > 50 µM

## CC(C)(C)C(=O)NNC(=O)/C=C\n1cnc(-c2cc(C(F)(F)F)cc(S(F)(F)(F)(F)F)c2)n1 [Compound III, (Z)-3-(3-(3-(Pentafluorosulfanyl)-5-(trifluoromethyl)phenyl)-1H-1,2,4-triazol-1-yl)-N′-pivaloylacrylohydrazide]
Ki67
  expression of Ki67 in tumors (IHC): significantly decreased
XPO1; 4 hours post washout
  XPO1 inhibition post washout: sustained XPO1 inhibition
  effect on nuclear retention of REV: 20%
XPO1; by 24 hours post washout
  XPO1 inhibition post washout: gradually diminished
XPO1; 24 hours post washout
  effect on nuclear retention of REV: completely lost
XPO1; following 1-hour treatment
  effect on nuclear retention of REV: about 40%
XPO1; washout assay
  toxicity / cell number compared to the control: no decrease in the cell number was observed
In vivo
  MTD: < 25 mg/kg
